Source: patent US5087616A, “Cytotoxic drug conjugates and their delivery to tumor cells” (Battelle Memorial Institute, priority 1986, dated 1992)

Columns and labels:
A431 malignant cells = assay: Inhibition of cellular protein synthesis (35S methionine incorporation), A431; type: cell-based; details: Homo sapiens, A-431, 48 h, read-out: % of protein Synthesis Inhibition
Protocol: (§1) The effect of these drugs was evaluated by the degree of inhibition of cellular protein synthesis. For this, we measured the level of incorporation of 35S methionine NEN) into newly synthesized proteins after a 48 hrs exposure to different concentrations of the drugs.
(§2) Cells were plated on 1.5 cm Petri dishes at 50 percent to 60 percent of confluence before the addition of the toxin. […] Cell death consecutive to this addition was measured as follows: the cells were exposed for 1 hour at 37° C. in 500 μl DMEM low methionine medium (GIBCO) containing radioactive ^35 S met. The medium was then removed and the dishes were washed with PBS 9137 mM NaCl, […], […], 8.1 mM Na2 HPO4, 1.5 mM KH2 PO4, 0.9 mM CaCl2, 0.5 mM MgCl2, pH 7.2). These solutions were stored for beta counting. The cells were lysed with 1 ml 0.1 N NaOH and placed in a tube with 500 μl Trichloroacetic acid (TCA) 10 percent to precipitate the proteins. This mixture was filtered on GF/A filters (Whatman) to eliminate unreacted ^35 S-met. The filters were washed twice with 1 ml of 10 percent TCA and once with 100 percent ethanol. The filters were dried at 80° C. for 2 hours and subjected to beta counting in Econofluor (NEN) scintillation medium.

A431 tumors [1] = assay: In vivo test of Conjugate IX, A431 tumors in nude mice; details: 2 mg/kg daunomycin every 3 days over 9 days, caudal vein
From the text: The in vivo tests reported in Example 8 were repeated using Conjugate IX.

WI38 (control) cells = assay: Inhibition of cellular protein synthesis (35S methionine incorporation), WI38; type: cell-based; details: Homo sapiens, WI-38, 48 h
Protocol: as §1, §2

[2] = tested on: mixed culture of A431 and WI38 cells; assay: Effect on mixed cultures of tumor (A431) and normal (WI38) cells; type: cell-based; details: 0.1 μg/ml (or equivalent free daunomycin), after 15 days
Protocol: Cells were maintained as described in Example 4. The WI38 fibroblasts were first plated and the A431 squamous carcinoma cells were plated the next day. […]

[3] = tested on: A431 squamous carcinoma cells; assay: Comparative cytotoxic effects of free and conjugated daunomycin, Trypan Blue exclusion; type: cell-based, human; details: A431, 1 μg/ml daunomycin or equivalent in conjugate, 48 hours
Protocol: All cells were maintained in Dulbecco's Modified Medium (DMEM), 10 percent foetal calf serum (FSC) (GIBCO), 2 percent penicillin-streptomycin (Gibco) and 1 percent fungizone (GIBCO) in 5 percent CO2. They were plated at 50 to 60 percent confluence 24 hours before the addition of the toxin. […] Four volumes of 0.2 percent (w/v) Trypan Blue in water was freshly mixed with 1 volume of a saline solution 4.25 percent (w/v) of NaCl in water. One volume of this solution was mixed with 1 volume of PBS on the cell monolayer or to 1 volume of cell suspension in PBS. Observation and scoring took place 48 hours after addition of the toxin (see FIG. 2a and 2b).

A431 tumors [4] = assay: In vivo test of Conjugate VIII, A431 tumors in nude mice; details: for Initial Surface of the Tumor (A): before treatment; for Final Surface of the tumor (B): a week after last injection; for Tumor weight: tumors dissected at end of experiment
Protocol: In the prior art, up to 10 mg/kg doses have been used in mice (S. Schwarz, et al., 1975, Cancer Chem. Rep., 6, 2, 107-114). The drug was injected either directly in the tumor or in the caudal vein 4 times at 3 days intervals. The measures were taken a week after the last injection.

[5] = tested on: A431 squamous carcinoma cells; assay: Internalization of 125I-labelled EGF and Conjugate VIII in A431 cells; type: cell-based, human; details: A431, 6 hrs at 37° C.
Protocol: (§3) The Conjugate VIII, radiolabeled with ^125 I on the EGF, was incubated with confluent cell cultures of A431 and WI38 cells for 6 hrs at 37° C. in solution A (4 parts DMEM and 1 part of 50 mM Tris, 100 mM NaCl and 0.1 percent BSA adjusted to pH 7.4). The cells were then washed four times with ice-cold PBS+1 mM CaCl2 and 1 mM MgCl2. Fifty percent trichloroacetic acid was added in a proportion of 1:5 to the pooled solution A and PBS, and the mixture was counted on a gamma counter. The cell membrane was destablized by treatment on ice with 200 mM acetic acid and 150 mM NaCl (solution B) for 6 minutes. The solution B was then removed and the cells washed twice with solution B. These pooled B solutions were assayed for ^125 I. This treatment releases the […] to the cell surface. The cells were then completely dissolved in 0.2 N NaOH. The radioactivity found there represented the internalized Conjugate VIII. In control experiments, using free EGF ^125 I, a proportion of the EGF is recycled to the medium, therefore lowering the intracellular EGF. The results on the internalization of ^125 I labelled EGF and Conjugate VIII in WI38 and A431 cell cultures are given in the following Table in terms of counts per min (background 30 cpm) for successively: EGF not integrated in the cell, EGF bound to the membrane, and EGF in the intra-cellular compartment. The percent of total cpm is given in brackets.

WI38 fibroblasts = assay: Internalization of 125I-labelled EGF and Conjugate VIII in WI38 cells; type: cell-based; details: WI38, 6 hrs at 37° C.
Protocol: as §3

[6] = I.T., 0.1 mg/kg daunomycin 4 times at 3 days intervals

In the case of COc1cccc2c1C(=O)c1c(O)c3c(c(O)c1C2=O)C[C@@](O)(C(C)=O)C[C@@H]3O[C@H]1C[C@H](N)[C@H](O)[C@H](C)O1 [Daunomycin, daunomycin], the inhibition at 0.1 µg/mL (A431 malignant cells) is reported as 30%, the inhibition at 0.5 µg/mL (A431 malignant cells) is reported as 68% and the inhibition at 1 µg/mL (A431 malignant cells) is reported as 97%. For the same compound, the Tumor diameter (A431 tumors [1]; day 0) was 10 mm, the Tumor diameter (A431 tumors [1]; day 4) was 12 mm and the Tumor diameter (A431 tumors [1]; day 7) was 15 mm. The Tumor diameter (A431 tumors [1]; day 11) was 20 mm, the Tumor diameter (A431 tumors [1]; day 14) was 21 mm and the inhibition at 0.1 µg/mL (WI38 (control) cells) was 10%. The inhibition at 0.5 µg/mL (WI38 (control) cells) was 46%, the inhibition at 1 µg/mL (WI38 (control) cells) was 80% and the “Cells remaining in mixed culture” value [2] was “all cells, malignant and normal, had died after 15 days”. For the same compound, the “Cell death by Trypan Blue exclusion” value [3] was “Exclusion of the dye from the cells demonstrates the viability thereof”, the “Initial Surface of the Tumor (A)” value (A431 tumors [4]; I.T. (intratumor)) was 9 and the “Growth coefficient (B/A)” value (A431 tumors [4]; [6]) was 18.7. The “Final Surface of the tumor (B)” value (A431 tumors [4]; [6]) was 170, the Tumor weight (A431 tumors [4]; I.T.) was 1.178 g and the “Initial Surface of the Tumor (A)” value (A431 tumors [4]; I.V. (caudal vein)) was 30.5. For the same compound, the “Final Surface of the tumor (B)” value (A431 tumors [4]; I.V., 0.1 mg/kg daunomycin 4 times at 3 days intervals) was 500 and the Tumor weight (A431 tumors [4]; I.V.) was 6.789 g.
With “EGF: Epidermal Growth Factor, a single polypeptide of 53 amino acids (SIGMA)” the “Intracellular, percent of total cpm” value [5] was 14%, the “Membrane, percent of total cpm” value [5] was 0% and the “Unbound, percent of total cpm” value [5] was 86%. For the same compound, the Intracellular ([5]; background 30 cpm) was 111 cpm, the Membrane ([5]; background 30 cpm) was 31 cpm and the “Unbound (EGF not integrated in the cell)” value ([5]; background 30 cpm) was 536 cpm. The Tumor diameter (A431 tumors [1]; day 0) was 10 mm, the Tumor diameter (A431 tumors [1]; day 4) was 13 mm and the Tumor diameter (A431 tumors [1]; day 7) was 14 mm. For the same compound, the Tumor diameter (A431 tumors [1]; day 11) was 17 mm, the Tumor diameter (A431 tumors [1]; day 14) was 17 mm and the “Intracellular, percent of total cpm” value (WI38 fibroblasts) was 7%. For the same compound, the “Membrane bound, percent of total cpm” value (WI38 fibroblasts) was 0%, the “Unbound, percent of total cpm” value (WI38 fibroblasts) was 93% and the Intracellular (WI38 fibroblasts; background 30 cpm) was 67 cpm. The Membrane bound (WI38 fibroblasts; background 30 cpm) was 29 cpm and the “Unbound (EGF not integrated in the cell)” value (WI38 fibroblasts; background 30 cpm) was 530 cpm.
